Test results reported in ChEMBL document CHEMBL1150920, “Three new ellagic acid derivatives from the bark of Eschweilera coriacea from the Suriname rainforest” (1998).

Tested on: Saccharomyces cerevisiae
Assay: DNA damaging activity against Sc-7 yeast assessed as drug level required to produce 12 mm zone of inhibition
Assay type: functional

## O=c1oc2c(O)c(Oc3ccc(O)c(O)c3O)cc3c(=O)oc4c(O)c(O)cc1c4c23 [ESCHWEILENOL A]
  IC12: 1000 µg/mL

## C[C@@H]1O[C@@H](Oc2cc3c(=O)oc4c(O)c(O)cc5c(=O)oc(c2O)c3c45)[C@H](O)[C@H](O)[C@H]1O [ESCHWEILENOL C]
  IC12: 2000 µg/mL
